The source made the active and inactive calls. The calls are words filed in the database; no cut-off is given here.
Experiments:
[1] = target: Isocitrate dehydrogenase [NADP] cytoplasmic (Homo sapiens, UniProt O75874); assay: Inhibition of wildtype IDH1 (unknown origin) using DL-isocitrate as substrate incubated for 60 mins in presence of NADP by fluorescence microplate reader
[2] = test system: U-87MG ATCC; type: functional, cell-based; details: Homo sapiens, dose 0.5-2 µM, time 24.0 hrs
[3] = test system: U-87 MG; assay: Antiproliferative activity against human U-87 MG cells harboring wildtype IDH1 assessed as inhibition of cell growth incubated for 24 hrs by CCK8 assay; type: functional, cell-based, U-87MG ATCC
[4] = Cmax in Sprague-Dawley rat at 10 mg/kg, po measured after 24 hrs by LC-MS/MS analysis; type: ADME, organism-based; details: in vivo
[5] = AUC in ICR mouse plasma at 5 mg/kg, iv measured after 24 hrs by LC-MS/MS analysis; type: ADME, organism-based
[6] = test system: U-87 MG; type: functional, organism-based; details: Homo sapiens; U-87MG ATCC; dose 10-40 mg/kg, route iv, time 35.0 day
[7] = AUC (0 to t) in Sprague-Dawley rat at 10 mg/kg, po measured after 24 hrs by LC-MS/MS analysis; type: ADME, organism-based; details: in vivo
[8] = target: T1, Nicotinamide phosphoribosyltransferase (Homo sapiens, UniProt P43490); type: cell-based; details: U-87 MG, dose 0.5 µM, time 6.0 hrs
Target sequence in this assay (P43490 whole entry, looked up): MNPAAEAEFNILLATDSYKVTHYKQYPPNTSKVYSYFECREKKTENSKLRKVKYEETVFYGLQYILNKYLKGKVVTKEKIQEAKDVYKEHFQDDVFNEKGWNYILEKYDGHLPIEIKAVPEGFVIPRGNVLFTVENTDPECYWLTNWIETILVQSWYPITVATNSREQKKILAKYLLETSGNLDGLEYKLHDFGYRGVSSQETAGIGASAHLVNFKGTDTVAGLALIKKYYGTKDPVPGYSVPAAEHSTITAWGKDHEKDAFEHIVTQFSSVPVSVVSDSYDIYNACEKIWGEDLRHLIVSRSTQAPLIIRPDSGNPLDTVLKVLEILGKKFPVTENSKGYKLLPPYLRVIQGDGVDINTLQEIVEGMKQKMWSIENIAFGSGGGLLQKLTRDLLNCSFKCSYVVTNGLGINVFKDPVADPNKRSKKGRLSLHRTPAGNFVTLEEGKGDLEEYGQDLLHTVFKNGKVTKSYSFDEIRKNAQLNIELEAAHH

[9] = test system: U-87MG ATCC; type: functional, cell-based; details: Homo sapiens, dose 0.5-2 µM, time 48.0 hrs
[10] = Oral bioavailability in Sprague-Dawley rat at 10 mg/kg measured after 24 hrs by LC-MS/MS analysis; type: ADME, organism-based; details: in vivo
[11] = test system: U-87 MG; type: functional, Homo sapiens, U-87MG ATCC; details: dose 2 µM; time 48 hrs
[12] = test system: U-87 MG; assay: cells; details: Homo sapiens, 48 h, read-out: Activity
[13] = Ratio of drug concentration in ICR mouse brain to plasma at 5 mg/kg, iv measured after 24 hrs by LC-MS/MS analysis; type: ADME, organism-based; details: read-out: BPR
[14] = test system: U-87 MG; type: functional, Homo sapiens, U-87MG ATCC; details: dose 0.5 µM; time 48 hrs
[15] = test system: U-87 MG; type: functional, Homo sapiens, U-87MG ATCC; details: dose 0.5 µM; time 48 hrs; remark: listed apart in the source
[16] = test system: U-87 MG; type: functional, U-87MG ATCC; details: Homo sapiens, time 48 hrs, read-out: Activity
[17] = Tmax in Sprague-Dawley rat at 10 mg/kg, po measured after 24 hrs by LC-MS/MS analysis; type: ADME, organism-based; details: in vivo
[18] = AUC (0 to t) in Sprague-Dawley rat at 1 mg/kg, iv measured after 24 hrs by LC-MS/MS analysis; type: ADME, organism-based; details: in vivo
[19] = target: Isocitrate dehydrogenase [NADP] cytoplasmic (Homo sapiens, UniProt O75874, R132C); assay: Inhibition of recombinant IDH1 R132C mutant (unknown origin) using alpha-ketoglutarate as substrate incubated for 60 mins in presence of NADPH by fluorescence microplate reader
[20] = target: Isocitrate dehydrogenase [NADP], mitochondrial (Homo sapiens, UniProt P48735, R172K); assay: Inhibition of IDH2 R172K mutant (unknown origin) using alpha-ketoglutarate as substrate incubated in presence of NADPH by Envision multimode plate reader analysis
[21] = test system: U-87MG ATCC; type: functional, cell-based; details: Homo sapiens, dose 0.5-2 µM, time 24.0 hrs; remark: listed apart in the source
[22] = test system: U-87 MG; type: functional, Homo sapiens, U-87MG ATCC; details: dose 10 mg/kg; route iv; time 35 day
[23] = test system: U-87 MG; assay: Antiproliferative activity against human U-87 MG cells harboring wildtype IDH1 assessed as inhibition of cell growth incubated for 48 hrs by CCK8 assay; type: functional, cell-based, U-87MG ATCC
[24] = Acute toxicity in ICR mouse at 400 mg/kg, po measured for 7 days; type: organism-based; details: in vivo, 168 h, time 7 day
[25] = Tmax in Sprague-Dawley rat at 1 mg/kg, iv measured after 24 hrs by LC-MS/MS analysis; type: ADME, organism-based; details: in vivo
[26] = test system: U-87 MG; type: functional, Homo sapiens, U-87MG ATCC; details: dose 2 µM; time 48 hrs; remark: listed apart in the source
[27] = Cmax in Sprague-Dawley rat at 1 mg/kg, iv measured after 24 hrs by LC-MS/MS analysis; type: ADME, organism-based; details: in vivo
[28] = test system: U-87 MG; type: functional, Homo sapiens, U-87MG ATCC; details: dose 40 mg/kg; route iv; time 35 day
[29] = Permeability of compound by PAMPA-BBB assay; type: ADME; details: read-out: permeability
[30] = test system: U-87 MG; type: functional, U-87MG ATCC; details: Homo sapiens, time 48 hrs, read-out: Activity; remark: listed apart in the source
[31] = test system: U-87 MG; type: functional, organism-based; details: Homo sapiens; U-87MG ATCC; dose 10-40 mg/kg, route iv, time 35.0 day; remark: listed apart in the source
[32] = test system: U-87 MG; type: functional, Homo sapiens, U-87MG ATCC; details: dose 0.5 µM; time 48 hrs; remark: listed apart in the source
[33] = test system: U-87 MG; type: functional, cell-based, U-87MG ATCC; details: Homo sapiens, 72 h
[34] = test system: U-87MG ATCC; assay: Effect on intracellular NADP+ level in human U-87 MG cells harboring wildtype IDH1; type: functional, cell-based
[35] = test system: U-87 MG; type: functional, cell-based, U-87MG ATCC; details: Homo sapiens, 48 h
[36] = test system: U-87MG ATCC; type: functional, cell-based; details: Homo sapiens, dose 0.5-2 µM, time 24.0 hrs; remark: listed apart in the source
[37] = target: T1, Nicotinamide phosphoribosyltransferase; type: cell-based; details: U-87 MG, dose 0.5-2 µM, time 48.0 hrs
Target sequence in this assay (P43490 whole entry, looked up): as above

[38] = test system: U-87MG ATCC; type: functional, cell-based; details: Homo sapiens, dose 0.5-2 µM, time 48.0 hrs; remark: listed apart in the source
[39] = test system: U-87 MG; type: functional, cell-based, U-87MG ATCC; details: Homo sapiens, 24 h
[40] = test system: U-87MG ATCC; type: functional, cell-based; details: Homo sapiens, dose 0.5-2 µM, time 24.0 hrs; remark: listed apart in the source
[41] = test system: U-87MG ATCC; type: functional, cell-based; details: Homo sapiens, dose 0.5-2 µM, time 24.0 hrs; remark: listed apart in the source
[42] = Clearance in Sprague-Dawley rat at 1 mg/kg, iv measured after 24 hrs by LC-MS/MS analysis; type: ADME, organism-based; details: in vivo
[43] = target: Isocitrate dehydrogenase [NADP], mitochondrial (Homo sapiens, UniProt P48735, R140Q); assay: Inhibition of IDH2 R140Q mutant (unknown origin) using alpha-ketoglutarate as substrate incubated in presence of NADPH by Envision multimode plate reader analysis
[44] = test system: U-87MG ATCC; type: functional, cell-based; details: Homo sapiens, dose 0.5-2 µM, time 24.0 hrs; remark: listed apart in the source
[45] = AUC in ICR mouse brain at 5 mg/kg, iv measured after 24 hrs by LC-MS/MS analysis; type: ADME, organism-based
[46] = test system: U-87 MG; assay: Antiproliferative activity against human U-87 MG cells harboring wildtype IDH1 assessed as inhibition of cell growth incubated for 72 hrs by CCK8 assay; type: functional, cell-based, U-87MG ATCC
[47] = test system: U-87 MG; type: functional, cell-based; details: Homo sapiens; U-87MG ATCC; dose 10-40 mg/kg, route iv, time 35.0 day
[48] = Half-life in Sprague-Dawley rat at 10 mg/kg, po measured after 24 hrs by LC-MS/MS analysis; type: ADME, organism-based; details: in vivo
[49] = target: T1, Nicotinamide phosphoribosyltransferase
Target sequence in this assay (P43490 whole entry): as the sequence (P43490 whole entry, looked up) above

[50] = target: Voltage-gated inwardly rectifying potassium channel KCNH2 (Homo sapiens, UniProt Q12809); assay: Inhibition of human ERG in CHO cells incubated for 2.5 mins by Qpatch electrogram analysis; type: toxicity, cell-based
[51] = Half-life in Sprague-Dawley rat at 1 mg/kg, iv measured after 24 hrs by LC-MS/MS analysis; type: ADME, organism-based; details: in vivo
[52] = target: T2, Isocitrate dehydrogenase [NADP], mitochondrial (Homo sapiens, UniProt P48735); assay: Inhibition of wildtype IDH2 (unknown origin) […] by Envision multimode plate reader analysis
T2 sequence (P48735 whole entry): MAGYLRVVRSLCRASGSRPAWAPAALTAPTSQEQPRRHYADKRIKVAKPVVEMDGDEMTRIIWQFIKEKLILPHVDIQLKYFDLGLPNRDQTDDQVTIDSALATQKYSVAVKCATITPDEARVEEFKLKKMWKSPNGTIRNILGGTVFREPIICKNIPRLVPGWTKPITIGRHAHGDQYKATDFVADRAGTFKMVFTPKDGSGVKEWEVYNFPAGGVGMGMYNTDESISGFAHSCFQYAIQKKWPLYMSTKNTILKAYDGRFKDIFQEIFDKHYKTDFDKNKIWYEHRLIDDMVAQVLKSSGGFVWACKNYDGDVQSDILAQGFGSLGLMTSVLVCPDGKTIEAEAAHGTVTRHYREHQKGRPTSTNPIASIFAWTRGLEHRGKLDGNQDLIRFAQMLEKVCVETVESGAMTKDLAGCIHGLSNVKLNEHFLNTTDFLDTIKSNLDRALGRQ

[53] = AUC (0 to infinity) in Sprague-Dawley rat at 1 mg/kg, iv measured after 24 hrs by LC-MS/MS analysis; type: ADME, organism-based; details: in vivo
[54] = AUC (0 to infinity) in Sprague-Dawley rat at 10 mg/kg, po measured after 24 hrs by LC-MS/MS analysis; type: ADME, organism-based; details: in vivo
[55] = test system: U-87 MG; type: functional, Homo sapiens, U-87MG ATCC; details: dose 20 mg/kg; route iv; time 35 day
[56] = test system: U-87 MG; type: functional, Homo sapiens, U-87MG ATCC; details: dose 2 µM; time 48 hrs; remark: listed apart in the source

Isocitrate dehydrogenase [NADP], mitochondrial (Homo sapiens, UniProt P48735, R172K), sequence (P48735 40-452 R172K limits assumed): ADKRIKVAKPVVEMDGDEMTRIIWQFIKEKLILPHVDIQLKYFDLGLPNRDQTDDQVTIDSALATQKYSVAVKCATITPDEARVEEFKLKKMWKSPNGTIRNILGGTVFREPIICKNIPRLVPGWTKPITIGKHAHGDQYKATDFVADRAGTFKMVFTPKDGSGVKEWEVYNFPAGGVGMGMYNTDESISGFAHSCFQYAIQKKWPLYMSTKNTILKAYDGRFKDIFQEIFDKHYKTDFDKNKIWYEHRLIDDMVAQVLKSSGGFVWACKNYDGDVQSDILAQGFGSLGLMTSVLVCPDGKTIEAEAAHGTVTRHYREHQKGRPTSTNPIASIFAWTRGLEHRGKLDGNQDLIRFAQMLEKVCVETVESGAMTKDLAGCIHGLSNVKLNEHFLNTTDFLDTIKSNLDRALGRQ
Isocitrate dehydrogenase [NADP] cytoplasmic (Homo sapiens, UniProt O75874), sequence (O75874 whole entry): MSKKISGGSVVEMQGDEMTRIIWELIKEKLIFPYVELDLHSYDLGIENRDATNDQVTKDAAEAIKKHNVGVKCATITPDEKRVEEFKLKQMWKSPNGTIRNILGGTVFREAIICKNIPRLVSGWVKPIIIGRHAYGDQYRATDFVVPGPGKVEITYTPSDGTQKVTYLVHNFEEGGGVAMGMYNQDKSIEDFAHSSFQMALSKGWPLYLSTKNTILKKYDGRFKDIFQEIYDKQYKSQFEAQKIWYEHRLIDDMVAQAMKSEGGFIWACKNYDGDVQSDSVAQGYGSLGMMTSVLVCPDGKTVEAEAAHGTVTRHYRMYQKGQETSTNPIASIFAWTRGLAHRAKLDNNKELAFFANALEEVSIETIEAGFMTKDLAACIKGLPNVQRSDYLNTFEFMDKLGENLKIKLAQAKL
Voltage-gated inwardly rectifying potassium channel KCNH2, sequence (Q12809 whole entry): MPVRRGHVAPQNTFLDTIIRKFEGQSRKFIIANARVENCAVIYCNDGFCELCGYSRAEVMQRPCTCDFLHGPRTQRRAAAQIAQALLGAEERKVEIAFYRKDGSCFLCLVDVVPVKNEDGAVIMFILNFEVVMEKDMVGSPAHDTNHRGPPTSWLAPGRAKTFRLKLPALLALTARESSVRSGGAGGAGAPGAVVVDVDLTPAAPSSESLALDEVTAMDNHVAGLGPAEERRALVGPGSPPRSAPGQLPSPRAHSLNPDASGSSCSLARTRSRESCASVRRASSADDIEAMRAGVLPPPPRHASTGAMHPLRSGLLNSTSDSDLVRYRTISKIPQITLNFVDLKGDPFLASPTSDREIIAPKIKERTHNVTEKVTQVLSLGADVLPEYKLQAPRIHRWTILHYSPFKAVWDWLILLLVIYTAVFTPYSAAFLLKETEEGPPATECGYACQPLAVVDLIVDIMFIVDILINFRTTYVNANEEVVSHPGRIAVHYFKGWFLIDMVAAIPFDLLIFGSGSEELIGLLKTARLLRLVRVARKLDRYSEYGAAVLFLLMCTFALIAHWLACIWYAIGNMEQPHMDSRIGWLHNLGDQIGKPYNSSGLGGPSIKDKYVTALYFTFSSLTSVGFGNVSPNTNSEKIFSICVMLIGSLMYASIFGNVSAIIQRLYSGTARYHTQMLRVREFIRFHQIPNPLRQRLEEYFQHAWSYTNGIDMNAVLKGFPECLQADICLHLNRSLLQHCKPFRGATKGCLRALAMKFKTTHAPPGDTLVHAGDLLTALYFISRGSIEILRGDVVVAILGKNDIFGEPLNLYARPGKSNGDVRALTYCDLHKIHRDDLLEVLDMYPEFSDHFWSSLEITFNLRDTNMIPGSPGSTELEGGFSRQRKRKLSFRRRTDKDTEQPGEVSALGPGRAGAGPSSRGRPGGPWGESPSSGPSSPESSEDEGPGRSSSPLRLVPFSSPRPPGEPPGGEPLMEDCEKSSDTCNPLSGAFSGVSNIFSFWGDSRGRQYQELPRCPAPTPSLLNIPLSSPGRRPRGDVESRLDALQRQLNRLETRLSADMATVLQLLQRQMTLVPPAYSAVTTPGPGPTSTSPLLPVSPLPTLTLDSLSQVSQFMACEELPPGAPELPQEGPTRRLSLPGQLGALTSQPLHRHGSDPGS
Isocitrate dehydrogenase [NADP] cytoplasmic (Homo sapiens, UniProt O75874, R132C), sequence (O75874 2-414 R132C limits assumed): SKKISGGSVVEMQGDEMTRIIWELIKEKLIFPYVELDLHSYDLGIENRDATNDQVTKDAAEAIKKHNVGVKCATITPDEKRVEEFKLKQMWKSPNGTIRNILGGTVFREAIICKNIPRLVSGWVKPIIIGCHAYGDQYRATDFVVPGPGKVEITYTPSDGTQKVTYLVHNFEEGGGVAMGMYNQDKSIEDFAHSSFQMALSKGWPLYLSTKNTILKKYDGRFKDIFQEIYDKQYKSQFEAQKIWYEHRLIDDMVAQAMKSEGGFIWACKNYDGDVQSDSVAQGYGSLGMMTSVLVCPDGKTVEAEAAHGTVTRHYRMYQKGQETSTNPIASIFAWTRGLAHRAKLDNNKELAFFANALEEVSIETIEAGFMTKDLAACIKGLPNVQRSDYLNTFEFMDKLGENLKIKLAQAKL
Isocitrate dehydrogenase [NADP], mitochondrial (Homo sapiens, UniProt P48735, R140Q), sequence (P48735 40-452 R140Q limits assumed): as the sequence (P48735 40-452 R172K limits assumed) above, with R101Q, K133R counted along it

For C[C@H](Nc1nccc(N2C(=O)OC[C@@H]2[C@H](C)F)n1)c1ccc(-c2ccc(NC(=O)COc3cccnc3)cc2)cc1, the IC50 [1] was 8950 nM, the Activity [2] was “Active” and the IC50 [3] was 1260 nM. For the same compound, the Cmax [4] was 867 ng/mL, the AUC at 24 h [5] was 20300 ng·h/mL and the Activity [6] was “Active”. For the same compound, the AUC(0-t) at 24 h [7] was 919 ng·h/mL, the Activity [8] was “Active” and the Activity [9] was “Dose-Dependent Effect”. For the same compound, the bioavailability [10] was 4.75%, the Activity [11] was 4.51% and the viability at 1 µM [12] was 35.5%. For the same compound, the Kp at 24 h [13] was 0.76, the Activity [14] was 21.9% and the Activity [15] was 30.6%. The viability at 2 µM [16] was 34.7%, the Tmax [17] was 45 min and the AUC(0-t) at 24 h [18] was 1930 ng·h/mL. The IC50 [19] was 65.1 nM, the IC50 [20] was over 100000 nM and the Activity [21] was “Active”. For the same compound, the MST [22] was 25.5 days, the IC50 [23] was 770 nM and the Activity [24] was “Non-Toxic”. It also gave a Tmax [25] of 1.98 min, an Activity [26] of 35.4% and a Cmax [27] of 4070 ng/mL. The MST [28] was 34 days, the Papp [29] was 4.07 ×10⁻⁶ cm/s and the viability at 0.5 µM [30] was 44.6%. For the same compound, the Activity [31] was “Active”, the Activity [32] was 2.84% and the IC50 [33] was 320 nM. For the same compound, the Activity [34] was “inactive”, the IC50 [35] was 470 nM and the Activity [36] was “Active”. For the same compound, the inhibition [37] was “Dose-Dependent Effect”, the Activity [38] was “inactive” and the IC50 [39] was 890 nM. For the same compound, the Activity [40] was “Active”, the Activity [41] was “Active” and the clearance [42] was 4.33 mL/min/kg. For the same compound, the IC50 [43] was over 100000 nM, the Activity [44] was “Active” and the AUC at 24 h [45] was 15600 ng·h/mL. The IC50 [46] was 420 nM, the Activity [47] was “Dose-Dependent Effect” and the half-life [48] was 124 min. For the same compound, the IC50 [49] was 49.2 nM, the IC50 [50] was over 40000 nM and the half-life [51] was 69.6 min. The IC50 [52] was over 100000 nM, the AUC(0-inf) [53] was 1940 ng·h/mL and the AUC(0-inf) [54] was 921 ng·h/mL. For the same compound, the MST [55] was 30.5 days and the Activity [56] was 25.5%.

— ChEMBL document CHEMBL5506022, “Discovery of Novel Dual Inhibitors Targeting Mutant IDH1 and NAMPT for the Treatment of Glioma with IDH1Mutation” (J Med Chem, 2024)
